Assay results as given in patent publication US20140024596A1, “DISEASE INHIBITING AGENT” (NITTA GELATIN INC., priority 2010, published 2014).
Non-standard residues stand in square brackets, D forms with d. Residues, ends and D or L forms follow the SMILES beside them. Hyp = O=C(O)[C@@H]1C[C@@H](O)CN1

How the values were obtained:
in vivo = settings: male, Wistar, rat, po, 215 nmol/10 mL
Description: Male Wistar rats (170 g) were fasted overnight before subjected to the experiment.
As a test method, heart and portal vein of each rat were attached with a cannula to make one-directional perfusion.
To a perfusion sample solution (5.0 mL) collected from the portal vein was added 0.5 mL of 30% sulfosalicylic acid and stirred vigorously, and left overnight in a refrigerator. This sample was centrifuged at 3000 rpm for 10 minutes, to remove protein. For the supernatant of centrifugation, an amount of hydroxyproline in 0.5 mL was colorimetrically quantified, and an amount of free-type Hyp was obtained.
Further, 3.0 mL of the supernatant of centrifugation was weighed into a screw-top test tube, and thereto an equivalent amount of concentrated hydrochloric acid was added, and hydrolyzed at 110° C. for 24 hours. After concentrating and drying the resultant in an evaporator, and removing the hydrochloric acid, the solid was dissolved in 5 mL of distilled water, and several drops of a saturated lithium hydroxide solution was added thereto to adjust pH at 5 to 7, and the volume was fixed at 10 mL. For 2 mL of this solution, an amount of hydroxyproline was colorimetrically quantified to obtain a total Hyp amount. The value obtained by subtracting the amount of free-type Hyp before hydrolysis from the total Hyp amount after hydrolysis is an amount of peptide-form Hyp. From this amount of peptide-form Hyp, a quantitative value of absorption of each peptide molecule into rat portal vein perfusate in the test sample was first determined.
In the above description, the colorimetric quantification of the amount of hydroxyproline was conducted by the Firschein and Shill method described concretely in Evaluation test 4.
Also, identification and quantification of OG, PO, Ala-Hyp, and Ser-Hyp were conducted by HPLC analysis and mass spectrometry (LC/MS/MS) as will be described later.
Analysis of the peptide molecules in the perfusate was conducted by reverse-phase HPLC analysis. As a HPLC device, an LCSS-905 system manufactured by JASCO Corporation, consisting of a liquid feeding pump, a degasser, an automatic sampler, a column open, a UV spectrophotometer, a printer, and a system controller was used. As a reverse-phase column, Nova Pak C18 (3.9×150 mm) was used.
A linear gradient mobile phase of a 0.1% TFA-containing acetonitrile-water system was used, and the injection amount of the sample was 70 μL and the flow rate was 1 mL/min.
As a HPLC device, U980HPLC (manufactured by JASCO Corporation) attached with an ODS(C18) column (Mightysil RP-18, 2×250 mm, manufactured by Kanto Chemical Co Ltd) was used. As a mobile phase solvent, a 0.2% formic acid-containing acetonitrile-water system was used, and the concentration of acetonitrile was increased from 0% to 40% over 40 minutes by a linear gradient, and washed with 100% acetonitrile for 10 minutes. The sample injection amount was 10 μL, and the column temperature was 40° C.
MS analysis was conducted by a MS/MS system using a Quattro LC mass spectrophotometer (Micromass, Manchester, UK) according to a four-channel Multiple Reaction Monitoring method. To be more specific, the elute from HPLC was monitored by m/z being [M+H]^+ and by m/s of its fragment ion species. The monitoring was conducted by using [M+H]^+ m/z: 229.1>132.1 for PO, [M+H]^+ m/z: 219.1>132.1 for Ser-Hyp, [M+H]^+ m/z: 203.1>132.1 for Ala-Hyp, and [M+H]^+ m/z: 189.1>86.1 for OG.
The perfusate was treated with sulfosalicylic acid in a final concentration of 3%, to remove protein. The supernatant liquid was lyophilized and 10 mg of a dry powder was dissolved in distilled water, and subjected to a positive ion exchange resin column to obtain an ammonia elution fraction. After removing the solvent, the fraction was dissolved in distilled water and subjected to LC/MS/MS analysis.

[1] = system: osteoclast (mouse primary bone marrow cell culture); experiment: Evaluation Test 1: osteoclast differentiation culture on plastic dish (TRAP-positive multinucleated giant cells); type: cell-based; settings: final concentration 625 μM, 6 days culture, control (blank) = 100, n = 6
Description: Evaluation was made in conformance with an osteoclast differentiation culture method by Kobayashi Y. et al. [J. Bone Miner. Metab. (2004) 22: p. 318-328]. […] As a control, TRAP inhibiting activity when no peptide was added (blank) was also examined.

[2] = system: osteoclast (precursor cells of osteoclasts and bone marrow stromal cells on ivory piece); experiment: Evaluation Test 1: Pit assay, osteoclast cultured on ivory piece; type: cell-based, mouse; settings: control (blank) = 100, n = 6; for Relative number of TRAP-positive multinucleated giant cells (osteoclasts) by cultivation on ivory piece (%): cultured about 1 week on ivory piece; for Relative number of Pit (%): resorption cavities on ivory piece, about 1 week
Description: Further, the inhibition degree of differentiation and activation of osteoclast by each of the peptide molecules, and amino acids was evaluated by the following Pit assay. In brief, the Pi assay in which osteoclast is cultured on an ivory piece was conducted in conformance with Kakudo S, et al J. Bone Miner. Metab. (1996) 14: 129-136. The concrete procedure is as follows. […] Then, after removing the cells from the ivory piece with a silicone rubber policeman, the ivory piece was stained with an acid hematoxylin solution for several minutes. At this time, the number of TRAP staining positive multinucleated giant cells (osteoclast) was counted by TRAP staining, and a relative number with respect to the number of cells in control (blank) was calculated. Then, the Pit number (number of resorption cavity) by osteoclast was counted under a microscope, and the degree of inhibiting osteoclast by each peptide to be tested was indicated by a relative ratio to blank (control).

level at time molar (in vivo) | Structure (SMILES) | other results
800 nM | O=C(O)CNC(=O)[C@@H]1C[C@@H](O)CN1C(=O)[C@@H]1CCCN1C(=O)CNC(=O)[C@@H]1C[C@@H](O)CN1C(=O)[C@@H]1CCCN1C(=O)CNC(=O)[C@@H]1C[C@@H](O)CN1C(=O)[C@@H]1CCCN1C(=O)CNC(=O)[C@@H]1C[C@@H](O)CN1C(=O)[C@@H]1CCCN1 [(POG)4, (Pro-Hyp-Gly)4] (H-P[Hyp]GP[Hyp]GP[Hyp]GP[Hyp]G-OH) | 
100 nM | NCC(=O)N1CCC[C@H]1C(=O)N1C[C@H](O)C[C@H]1C(=O)NCC(=O)N1CCC[C@H]1C(=O)N1C[C@H](O)C[C@H]1C(=O)NCC(=O)O [G(POG)2, Gly-(Pro-Hyp-Gly)2] (H-GP[Hyp]GP[Hyp]G-OH; N-terminus and C-terminus assumed) | 
1100 nM | O=C(O)CNC(=O)[C@@H]1C[C@@H](O)CN1C(=O)[C@@H]1CCCN1C(=O)CNC(=O)[C@@H]1C[C@@H](O)CN1C(=O)[C@@H]1CCCN1 [(POG)2, (Pro-Hyp-Gly)2] (H-P[Hyp]GP[Hyp]G-OH; N-terminus and C-terminus assumed) | 
9800 nM | O=C(O)CNC(=O)[C@@H]1C[C@@H](O)CN1 [OG, Hyp-Gly] (H-[Hyp]-Gly-OH) | 
 | O=C(O)[C@@H]1C[C@@H](O)CN1 [Hyp, hydroxyproline] | Relative area of TRAP-positive multinucleated giant cells (osteoclasts) by cultivation on plastic dish (%) [1]: 117 ± 13 %; Relative number of TRAP-positive multinucleated giant cells (osteoclasts) by cultivation on plastic dish (%) [1]: 126 ± 4 %; Relative number of TRAP-positive multinucleated giant cells (osteoclasts) by cultivation on ivory piece (%) [2]: 141 ± 9 %; Relative number of Pit (%) [2]: 131 ± 11 %
700 nM | N[C@@H](CO)C(=O)N1C[C@H](O)C[C@H]1C(=O)O [Ser-Hyp] (H-Ser-[Hyp]-OH) | 
80 nM | NCC(=O)N1CCC[C@H]1C(=O)N1C[C@H](O)C[C@H]1C(=O)NCC(=O)N1CCC[C@H]1C(=O)N1C[C@H](O)C[C@H]1C(=O)NCC(=O)N1CCC[C@H]1C(=O)N1C[C@H](O)C[C@H]1C(=O)NCC(=O)O [G(POG)3, Gly-(Pro-Hyp-Gly)3] (H-GP[Hyp]GP[Hyp]GP[Hyp]G-OH) | 
100 nM | N=C(N)NCCC[C@H](NC(=O)CNC(=O)[C@@H]1CCCN1C(=O)[C@H](CCCCN)NC(=O)CNC(=O)[C@@H]1CCCN1C(=O)[C@H](Cc1c[nH]cn1)NC(=O)CNC(=O)[C@H](CC(=O)O)NC(=O)[C@H](CCCCN)NC(=O)[C@@H](N)CCC(=O)O)C(=O)N1C[C@H](O)C[C@H]1C(=O)NCC(=O)N[C@@H](CCC(=O)O)C(=O)O [EKDGHPGKPGROGE] (H-EKDGHPGKPGR[Hyp]GE-OH) | 
1200 nM | C[C@H](N)C(=O)N1C[C@H](O)C[C@H]1C(=O)O [Ala-Hyp] (H-Ala-[Hyp]-OH) | 
21300 nM | O=C(O)[C@@H]1C[C@@H](O)CN1C(=O)[C@@H]1CCCN1 [PO, Pro-Hyp] (H-Pro-[Hyp]-OH) | 
 | O=C(O)[C@@H]1CCCN1 [Pro, proline] | Relative area of TRAP-positive multinucleated giant cells (osteoclasts) by cultivation on plastic dish (%) [1]: 125 ± 69%; Relative number of TRAP-positive multinucleated giant cells (osteoclasts) by cultivation on plastic dish (%) [1]: 119 ± 44%; Relative number of TRAP-positive multinucleated giant cells (osteoclasts) by cultivation on ivory piece (%) [2]: 119 ± 20%; Relative number of Pit (%) [2]: 121 ± 23%
900 nM | O=C(O)CNC(=O)[C@@H]1C[C@@H](O)CN1C(=O)[C@@H]1CCCN1C(=O)CNC(=O)[C@@H]1C[C@@H](O)CN1C(=O)[C@@H]1CCCN1C(=O)CNC(=O)[C@@H]1C[C@@H](O)CN1C(=O)[C@@H]1CCCN1 [(POG)3, (Pro-Hyp-Gly)3] (H-P[Hyp]GP[Hyp]GP[Hyp]G-OH) | 
100 nM | CC(C)C[C@H](NC(=O)[C@H](Cc1c[nH]cn1)NC(=O)CNC(=O)[C@H](CC(=O)O)NC(=O)CNC(=O)[C@@H](N)CCC(=O)O)C(=O)NCC(=O)N[C@@H](CCCCN)C(=O)N1CCC[C@H]1C(=O)NCC(=O)N[C@@H](CCCNC(=N)N)C(=O)N1C[C@H](O)C[C@H]1C(=O)NCC(=O)N[C@@H](CCC(=O)O)C(=O)O [EGDGHLGKPGROGE] (H-EGDGHLGKPGR[Hyp]GE-OH) | 
